From patent US20230331803A1, “CO-AGONISTS OF THE GLP-1 AND AMYLIN RECEPTORS” (priority 2020, published 2023)
Where two headings read alike, the source gives them in different places. Starred links: 1 amine or outer side, 2 acyl side, 3 side chain; linkers in the order of their positions; H or OH if unused. Non-standard residues stand in square brackets, D forms with d. Groups on a side chain read outwards from the residue. *: point of attachment. Decanoyl(10-(4-HOOC-PhO)) = O=C(O)c1ccc(OCCCCCCCCCC(=O)*)cc1; Decanoyl(10-O(3-COOH-Ph)) = O=C(O)c1cccc(OCCCCCCCCCC(=O)*)c1; C20 diacid = O=C(O)CCCCCCCCCCCCCCCCCCC(=O)*; C16 diacid = O=C(O)CCCCCCCCCCCCCCC(=O)*; γGlu = O=C(O)[C@H](CCC(=O)[*:2])N[*:1]; εLys = N[C@@H](CCCCN[*:1])C(=O)[*:2]; Trx = NC[C@H]1CC[C@H](C(=O)O)CC1; AEEA = NCCOCCOCC(=O)O; Aib = CC(C)(N)C(=O)O; Ahx = NCCCCCC(=O)O

Columns and labels:
[1] = target: T1, human amylin receptor (hAmyR3) (Homo sapiens, UniProt O60896+P30988); assay: Human amylin receptor in vitro potency assay (CRE-luciferase reporter, BHK cells); format: cell-based;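 also: BHK cells expressing human calcitonin receptor plus RAMP3 (amylin-3 receptor) with a CRE-luciferase reporter, agonist activity read as luminescence from cAMP-driven transcription, 7-point serial dilutions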
T1 construct: host or cells: BHK cells (Hollex-1 line: human calcitonin receptor (a) + CRE-Luc), further transfected with human RAMP3

human GLP-1 receptor = target: T2, human GLP-1 receptor (Homo sapiens, UniProt P43220); assay: Human GLP-1 receptor in vitro potency assay (CRE-luciferase reporter, BHK cells); format: cell-based
T2 construct: expressed in transfected cells; host or cells: BHK (Baby Hamster Kidney) cells, clone BHK 467-12A KZ-10, stably transfected, with CRE-luciferase reporter
Description: It is thus possible to measure GLP-1 receptor activity using a CRE-luciferase reporter gene introduced into Baby Hamster Kidney (BHK) cells co-expressing the GLP-1 receptor.
Cells were aliquoted and stored at -180° C. until use.
Plates were sealed and incubated at room temperature with gentle shaking for 30 minutes while protected from light. Luminescence was detected on a luminescence plate reader e.g. a Synergy 2 (BioTek).

[2] = Pharmacokinetic studies in Beagle dogs after oral administration of SNAC-based tablets; format: in vivo; settings: for Tmax / half-life: male, Beagle
Description: To be able to evaluate oral exposure following tablet dosing, tablet compositions comprising the test substance and SNAC (sodium N-(8-(2-hydroxybenzoyl)amino)caprylate) were prepared by mixing test substance with roller compacted SNAC and magnesium stearate as, e.g., described in WO 2019/149880. The amount of SNAC in the tablet composition was 100-300 mg, the amount of magnesium stearate in the tablet composition was 7.7 mg, and the target amount of each test substance in the tablet composition was 3-4 mg.
Pharmacokinetic (PK) studies in Beagle dogs were conducted to determine the exposure of the GLP-1 receptor-amylin receptor co-agonist after peroral administration.
For the pharmacokinetic studies male Beagle dogs were used, 2-7, or 1 to 5, years of age and weighing approximately 10-15, such as 10-12, kg at the start of the studies. The dogs were group housed in pens (12 hours light: 12 hours dark),and fed individually and restrictedly once daily with Royal Canin Medium Adult dog (Royal Canin Products, China Branch, or Brogaarden A/S, Denmark). Exercise and group social were permitted daily, whenever possible. The dogs were used for repeated pharmacokinetic studies with a suitable wash-out period between successive dosing. An appropriate acclimatisation period was given prior to initiation of the first pharmacokinetic study. All handling, dosing and blood sampling of the animals were performed by trained and skilled staff. Before the studies the dogs were fasted overnight and from 0 to 4 h after dosing. Besides, the dogs were restricted to water 1 hour before dosing until 4 hours after dosing, but otherwise have ad libitum access to water during the whole period.
The tablets used for the p.o. studies described herein were immediate release SNAC-based tablets dosed orally.
The tablets were administered in the following manner: 10 min prior to tablet administration the dogs may be dosed subcutaneously with approximately 3 nmol/kg of SEQ ID NO: 237, tablets were placed in the back of the mouth of the dog to prevent chewing. The mouth was then closed, and 10 mL of tap water was given by a syringe or gavage to facilitate swallowing of the tablet.
Blood was sampled at predefined time points for up till 240 hours, such as up till 10 hr, post dosing to adequately cover the full plasma concentration-time absorption profile of the GLP-1 agonist.
For each blood sampling time point approximately 0.8 mL of whole blood was collected in a 1.5 mL EDTA coated tube, and the tube was gently turned to allowing mixing of the sample with the EDTA. Blood samples (for example 0.8 mL) were collected in EDTA buffer (8 mM) and then centrifuged at 4° C. and 2000 G for 10 minutes. Plasma was pipetted into Micronic tubes on dry ice, and kept at -20° C. until analysis.
Blood samples were taken as appropriate, for example from a venflon in the cephalic vein in the front leg for the first 2 hours and then with syringe from the jugular vein for the rest of the time points (the first few drops were allowed to drain from the venflon to avoid heparin saline from the venflon in the sample).
Plasma concentration of the GLP-1 receptor-amylin receptor co-agonists were determined using LCMS. Individual plasma concentration-time profiles were analysed by a non-compartmental model in WinNonlin v. 5.0 or Phoenix v. 6.2 or 6.3 (Pharsight Inc., Mountain View, CA, USA), or other relevant software for PK analysis.
The individual plasma concentration-time profiles were analysed by non-compartmental analysis (NCA).

[3] = Table 4a, BHK hAmyR3/CRE-Luc cells, 3 hours, read-out: Human AmyR3 potency [EC50 (pM)]
[4] = Table 4a, BHK cells expressing human GLP-1R, CRE-Luc, 3 hours, read-out: Human GLP-1R potency [EC50 (pM)]
[5] = dogs, oral administration (tablet)
[6] = dog, in vivo, dogs, oral administration (tablet), read-out: Tmax
[7] = dog, in vivo, dogs, oral administration (tablet), read-out: T½ (converted)

T2 sequence (P43220 24-463): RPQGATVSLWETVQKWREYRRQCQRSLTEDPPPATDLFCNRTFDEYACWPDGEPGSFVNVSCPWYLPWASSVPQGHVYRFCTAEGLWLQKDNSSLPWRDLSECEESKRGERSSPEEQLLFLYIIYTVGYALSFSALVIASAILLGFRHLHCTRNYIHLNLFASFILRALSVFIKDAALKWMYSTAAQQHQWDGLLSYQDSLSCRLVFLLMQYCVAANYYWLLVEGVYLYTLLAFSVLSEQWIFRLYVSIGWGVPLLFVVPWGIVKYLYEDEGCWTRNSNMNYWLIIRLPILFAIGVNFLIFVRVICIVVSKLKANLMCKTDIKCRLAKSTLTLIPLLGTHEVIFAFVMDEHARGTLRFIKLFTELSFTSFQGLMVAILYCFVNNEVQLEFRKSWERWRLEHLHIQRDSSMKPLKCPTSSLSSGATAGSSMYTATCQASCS
T1 sequence (P30988 25-474): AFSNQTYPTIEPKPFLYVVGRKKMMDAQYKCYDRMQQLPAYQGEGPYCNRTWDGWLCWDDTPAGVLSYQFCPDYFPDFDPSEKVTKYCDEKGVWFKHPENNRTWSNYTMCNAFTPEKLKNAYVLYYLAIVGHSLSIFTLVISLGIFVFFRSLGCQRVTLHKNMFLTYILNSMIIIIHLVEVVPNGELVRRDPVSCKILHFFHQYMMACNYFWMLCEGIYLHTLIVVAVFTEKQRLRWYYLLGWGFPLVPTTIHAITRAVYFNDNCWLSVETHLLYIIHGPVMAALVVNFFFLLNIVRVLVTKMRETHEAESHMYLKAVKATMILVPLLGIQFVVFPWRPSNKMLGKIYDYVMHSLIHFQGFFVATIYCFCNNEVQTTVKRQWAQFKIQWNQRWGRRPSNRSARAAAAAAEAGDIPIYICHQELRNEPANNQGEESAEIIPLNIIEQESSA
T1 sequence (O60896 24-148): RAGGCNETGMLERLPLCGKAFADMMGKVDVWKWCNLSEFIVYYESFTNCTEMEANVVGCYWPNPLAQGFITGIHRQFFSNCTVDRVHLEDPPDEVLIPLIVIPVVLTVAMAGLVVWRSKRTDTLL

| Compound | EC50 [1, 3] [pM] | EC50 (human GLP-1 receptor; [4]) [pM] | AUC/D ([2]; dog, in vivo, po) [kg·h/L] | Cmax/D ([2]; dog, in vivo, po) [kg/L] | Tmax ([2]; dog, in vivo, po, Tmax (hr)) [h] | half-life ([2]; dog, in vivo, po, T½ (hr)) [h] | EC50 [1] [pM] | EC50 (human GLP-1 receptor) [pM] | AUC/D [2, 5] [kg·h/L] | Cmax/D [2, 5] [kg/L] | Tmax [2, 6] [h] | half-life [2, 7] [h] | Tmax ([2]; dog, plasma, po, dogs, oral administration (tablet), read-out: Tmax) [h] | half-life ([2]; dog, plasma, po, dogs, oral administration (tablet), read-out: T½ (converted)) [h] |
| --- | --- | --- | --- | --- | --- | --- | --- | --- | --- | --- | --- | --- | --- | --- |
| H-H[Aib]EGTFTSDVSK([AEEA-AEEA-γGlu-C16 diacid])YLEEQAAREFIAWLVRGRK([AEEA-AEEA-γGlu-C16 diacid])GGGGEASELSTAALGRLSAELHELATLPRTETGSGSP-NH2 [Compound 0528] | 22 | 3.8 | 37.01 | 0.5 | 1.5 | 107 | – | – | – | – | – | – | – | – |
| H-H[Aib]EGTFTSDVSK([AEEA-AEEA-γGlu-C16 diacid])YLEEQAARK([AEEA-AEEA-γGlu-C16 diacid])FIAWLVRGRQEASELSTAALGRLSAELHELATLPRTETGSGSP-NH2 [Compound 0578] | 26.9 | 2.5 | 30.60 | 0.39 | 1.3 | 90 | – | – | – | – | – | – | – | – |
| H-H[Aib]EGTFTSDVSSYLEEQAAREFIAWLVRGRK([AEEA-AEEA-γGlu-Trx-C20 diacid])GGEASELSTAALGRLSAELHELATLPRTETGSGSP-NH2 [Compound 0512] | 10.8 | 7.6 | 3.21 | 0.13 | 2 | 21 | – | – | – | – | – | – | – | – |
| H-H[Aib]EGTFTSDVSSYLEEQAAK([εLys-AEEA-AEEA-γGlu-Trx-C20 diacid])EFIEWLVRGRGEASELSTAALGRLSAELHELATLPRTETGSGSP-NH2 [Compound 0436] | 12.3 | 15.2 | 15.00 | 0.3 | 1.5 | 35 | – | – | – | – | – | – | – | – |
| H-H[Aib]EGTFTSDVSSYLEGQAAREFIAWLVRGRGQEPK([AEEA-AEEA-γGlu-C20 diacid])GQAPEASELSTAALGRLSAELHELATLPRTETGSGSP-NH2 [Compound 0529] | 14.1 | 6.4 | 19.71 | 0.3 | 4 | 68 | – | – | – | – | – | – | – | – |
| H-H[Aib]EGTFTSDVSSYLEEK([AEEA-AEEA-γGlu-Trx-C20 diacid])AAREFIAWLVRGRGGGGEASELSTAALGRLSAELHELATLPRTETGSGSP-NH2 [Compound 0265] | 8.1 | 6 | 5.68 | 0.16 | 2 | 16 | – | – | – | – | – | – | – | – |
| CC[C@H](C)[C@H](NC(=O)[C@H](Cc1ccccc1)NC(=O)[C@H](CCC(=O)O)NC(=O)[C@H](CCCNC(=N)N)NC(=O)[C@H](C)NC(=O)[C@H](C)NC(=O)[C@H](CCC(N)=O)NC(=O)[C@H](CCC(=O)O)NC(=O)[C@H](CCC(=O)O)NC(=O)[C@H](CC(C)C)NC(=O)[C@H](Cc1ccc(O)cc1)NC(=O)[C@H](CO)NC(=O)[C@H](CO)NC(=O)[C@H](CCCCNC(=O)COCCOCCNC(=O)COCCOCCNC(=O)CC[C@H](NC(=O)[C@H]1CC[C@H](CNC(=O)CCCCCCCCCCCCCCCCCCC(=O)O)CC1)C(=O)O)NC(=O)[C@H](CC(=O)O)NC(=O)[C@H](CO)NC(=O)[C@@H](NC(=O)[C@H](Cc1ccccc1)NC(=O)[C@@H](NC(=O)CNC(=O)[C@H](CCC(=O)O)NC(=O)[C@H](C)NC(=O)[C@@H](N)Cc1c[nH]cn1)[C@@H](C)O)[C@@H](C)O)C(=O)N[C@@H](CCC(=O)O)C(=O)N[C@@H](Cc1c[nH]c2ccccc12)C(=O)N[C@@H](CC(C)C)C(=O)N[C@H](C(=O)N[C@@H](CCCNC(=N)N)C(=O)NCC(=O)N[C@@H](CCCNC(=N)N)C(=O)NCC(=O)N[C@@H](CCC(=O)O)C(=O)N[C@@H](C)C(=O)N[C@@H](CO)C(=O)N[C@@H](CCC(=O)O)C(=O)N[C@@H](CC(C)C)C(=O)N[C@@H](CO)C(=O)N[C@H](C(=O)N[C@@H](C)C(=O)N[C@@H](C)C(=O)N[C@@H](CC(C)C)C(=O)NCC(=O)N[C@@H](CCCNC(=N)N)C(=O)N[C@@H](CC(C)C)C(=O)N[C@@H](CO)C(=O)N[C@@H](C)C(=O)N[C@@H](CCC(=O)O)C(=O)N[C@@H](CC(C)C)C(=O)N[C@@H](Cc1c[nH]cn1)C(=O)N[C@@H](CCC(=O)O)C(=O)N[C@@H](CC(C)C)C(=O)N[C@@H](C)C(=O)N[C@H](C(=O)N[C@@H](CC(C)C)C(=O)N1CCC[C@H]1C(=O)N[C@@H](CCCNC(=N)N)C(=O)N[C@H](C(=O)N[C@@H](CCC(=O)O)C(=O)N[C@H](C(=O)NCC(=O)N[C@@H](CO)C(=O)NCC(=O)N[C@@H](CO)C(=O)N1CCC[C@H]1C(N)=O)[C@@H](C)O)[C@@H](C)O)[C@@H](C)O)[C@@H](C)O)C(C)C [Compound 0431] | – | – | – | – | – | – | 11.9 | 10.9 | 9.75 | 0.29 | 1.5 | 34 | – | – |
| H-H[Aib]EGTFTSDVSSYLEEQAAREFIEWLVRGRK([AEEA-AEEA-γGlu-Trx-C20 diacid])GGGGEASELSTAALGRLSAELHELATLPRTETGSGSP-NH2 [Compound 0503] | 7.7 | 6.5 | 8.72 | 0.14 | 4 | 41 | – | – | – | – | – | – | – | – |
| H-H[Aib]EGTFTSDVSK([AEEA-AEEA-γGlu-C16 diacid])YLEEQAARK([AEEA-AEEA-γGlu-C16 diacid])FIEWLVRGRGEASELSTAALGRLSAELHELATLPRTETGSGSP-NH2 [Compound 0577] | 19.1 | 5.6 | 37.60 | 0.45 | 1.3 | 93 | – | – | – | – | – | – | – | – |
| H-HWEGTFTSDVSSYLEEQAAREFIEWLVRGK([AEEA-AEEA-γGlu-Decanoyl(10-(4-HOOC-PhO))])GEGGGGGASELSTAALGRLSAELHELK([AEEA-AEEA-γGlu-Decanoyl(10-(4-HOOC-PhO))])TLPRTETGSGSP-NH2 [Compound 0234] | – | – | – | – | – | – | 38.4 | 38.9 | 8.00 | 0.35 | 1 | 31 | – | – |
| H-H[Aib]EGTFTSDVSK([Ahx-γGlu-γGlu-C16 diacid])YLEEQAARK([Ahx-γGlu-γGlu-C16 diacid])FIEWLVRGAAEASELSTAALGRLSAELHELATLPRTETGSGSP-NH2 [Compound 0630] | 110 | 7.1 | 33.33 | 0.53 | 1.5 | 73 | – | – | – | – | – | – | – | – |
| H-H[Aib]EGTFTSDVSSYLEEQAAREFIAWLVRGK([AEEA-AEEA-γGlu-Decanoyl(10-O(3-COOH-Ph))])K([AEEA-AEEA-γGlu-Decanoyl(10-O(3-COOH-Ph))])GGGGASELSTAALGRLSAELHELATLPRTETGSGSP-NH2 [Compound 0235] | 24 | 10.4 | – | – | – | – | – | – | 3.3 | 0.22 | – | – | 1 | 21 |
